Drawing on patent US5455351A, “Retroviral protease inhibiting piperazine compounds” (Abbott Laboratories, priority 1993, dated 1995), this text covers inhibition, CC50 and IC50 for one molecule.

The target of one data set is T1, HIV-1 protease (HIV-1 M:B_HXB2R, UniProt P04585).
T1 construct: fluorogenic DABCYL/EDANS peptide substrate
In words: Fluorogenic Assay for Screening Inhibitors of HIV Protease. The format is biochemical. Particulars: inhibitor concentration 0.5 nanomolar; pH 4.5; 30° C.; 1.3 μM fluorogenic substrate; read-out: Percent Inhibition. The protocol:
The inhibitory potency of the compounds of the invention can be determined by the following method.
A compound of the invention is dissolved in DMSO and a small aliquot further diluted with DMSO to 100 times the final concentration desired for testing. The reaction is carried out in a 6×50 mm tube in a total volume of 300 microliters. The final concentrations of the components in the reaction buffer are: 125 mM sodium acetate, 1 M sodium chloride, 5 mM dithiothreitol, 0.5 mg/ml bovine serum albumin, 1.3 μM fluorogenic substrate, 2% (v/v) dimethylsulfoxide, pH 4.5. After addition of inhibitor, the reaction mixture is placed in the fluorometer cell holder and incubated at 30° C. for several minutes. The reaction is initiated by the addition of a small aliquot of cold HIV protease. The fluorescence intensity (excitation 340 nm, emmision 490 nM) is recorded as a function of time. The reaction rate is determined for the first six to eight minutes. The observed rate is directly proportional to the moles of substrate cleaved per unit time. The percent inhibition is 100 X (1 -(rate in presence of inhibitor)/(rate in absence of inhibitor)).
Fluorogenic substrate: DabcyI-Ser-GIn-Asn-Tyr-Pro-Ile-VaI-GIn-EDANS wherein DABCYL=4-(4-dimethylamino-phenyl)azobenzoic acid and EDANS=5-((2-aminoethyl)amino)-naphthalene-1-sulfonic acid.

Data set [1] is described as follows: Viability (LC50) of MT4 cells. The format is cell-based. Conditions: human, read-out: LC50 (concentration of compound at which 50% of the cells remain viable). From the text: (§1) The anti-HIV activity of the compounds of the invention can be determined in MT4 cells according to the procedure of Kempf, et. al. (Antimicrob. Agents Chemother. 1991, 35, 2209). The IC50 is the concentration of compound that gives 50% inhibition of the cytopathic effect of HIV. The LC50 is the concentration of compound at which 50% of the cells remain viable.

In a further data set the test system is HIV-13B. In words: Antiviral activity: inhibition of the cytopathic effect of HIV in MT4 cells. The format is cell-based. Particulars: Human immunodeficiency virus 1; HIV-13B in MT4 cells; read-out: IC50 (concentration of compound that gives 50% inhibition of the cytopathic effect of HIV).
Text: as §1
A general note: Protection from cytopathic effect is a common read-out in antiviral testing.

Each structure is given as a SMILES string. A value given as a limit tells only on which side of the number the result lay.

Usually inhibition stands for the change of the read-out against control, counted positive when it falls. On to `CC(C)(C)NC(=O)[C@@H]1CN(Cc2cncs2)CCN1C[C@@H](O)C[C@@H](Cc1ccccc1)C(=O)N[C@H]1c2ccccc2C[C@H]1O` [Example 1R, (1S,2R,2'R,4'S,2"S)-1-((2-Benzyl-5-(((2-(t-butyl)amino)carbonyl)-4-((thiazol-5-yl)methyl)piperazin-1-yl)-4-hydroxypentanoyl)amino)indan-2-ol], for which the inhibition at 0.0005 µM at HIV-1 protease was found to be 61%. Moreover, the CC50 in data set [1] is over 100000 nM. Further, in the data set on HIV-13B, the IC50 worked out at 16 nM.
